Source: paper PMC7377239, “Cardiovascular Effects of Polychlorinated Biphenyls and Their Major Metabolites” (Environmental Health Perspectives, 2020)
Read-outs that look alike come from different tables or passages of the source.

How the values were obtained:
[1] = system: iCell cardiomyocytes (human iPSC-derived cardiomyocytes); experiment: High-content imaging of cytotoxicity and mitochondrial integrity in iPSC-CMs; format: cell-based; details: Homo sapiens; for viability at 0.01 µM / activity at 0.01 µM / viability at 0.1 µM / activity at 0.1 µM / viability at 1 µM / activity at 1 µM / viability at 10 µM / activity at 10 µM / viability at 100 µM / activity at 100 µM: Cardiomyocyte, 0.00 µM = 100.00; for viability at 0.1 µM / activity at 0.1 µM: 0.10 µM; for minimal effective concentration: iPSC-CM
Method in brief: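 Cardiomyocytes grown on gelatinized 384-well plates received fresh medium on the experiment day and were then exposed to chemicals at 0.01–100μM. Nuclei and mitochondria were labeled with Hoechst 33342 and MitoTracker™ Orange, then fixed, and imaged on an ImageXpress® Micro Confocal system. Four-parameter logistic concentration–response fits in R, with a one-standard-deviation vehicle cutoff, gave point-of-departure values.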

HUVECs = experiment: High-content imaging cytotoxicity in HUVECs, 24 h; format: cell-based, human; details: Homo sapiens, HUVEC, 24 h, HUVECs; for viability at 0.01 µM / activity at 0.01 µM / viability at 0.1 µM / activity at 0.1 µM / viability at 1 µM / activity at 1 µM / viability at 10 µM / activity at 10 µM / viability at 100 µM / activity at 100 µM: 0.00 µM = 100.00; for viability at 0.1 µM / activity at 0.1 µM: 0.10 µM; for minimal effective concentration: top concentration 100.00 µM
Method in brief: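 Read-out: multiwavelength high-content imaging of Hoechst 33342, MitoTracker Orange and calcein AM after 24 h compound exposure of confluent HUVEC monolayers. POD values were set using a one-SD cutoff from vehicle (0.5% DMSO) means; with no concentration–response, 100μM was assigned as no observable adverse effect level.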

[2] = 24 hr, read-out: huvec.cyto.24hr
[3] = 24 hr, read-out: huvec.mito.24hr
[4] = 24 hr, read-out: huvec.mitoint.24hr
[5] = 24 hr, read-out: huvec.nma.24hr
[6] = 24 hrs, read-out: huvec.tc.24hrs

Oc1ccccc1-c1ccc(Cl)cc1 [2'-OH PCB3]
viability at 0.01 µM ([1]; 1.5 h, read-out: cm.cam.90min): 104%
activity at 0.01 µM ([1]; 1.5 h, read-out: cm.mii.90min): 111%
activity at 0.01 µM ([1]; 1.5 h, read-out: cm.mito.90min): 104%
viability at 0.01 µM ([1]; 1.5 h, read-out: cm.tc.90min): 104%
viability at 0.1 µM ([1]; 1.5 h, read-out: cm.cam.90min): 95.6%
activity at 0.1 µM ([1]; 1.5 h, read-out: cm.mii.90min): 113%
activity at 0.1 µM ([1]; 1.5 h, read-out: cm.mito.90min): 95.6%
viability at 0.1 µM ([1]; 1.5 h, read-out: cm.tc.90min): 95.6%
viability at 1 µM ([1]; 1.5 h, read-out: cm.cam.90min): 101%
activity at 1 µM ([1]; 1.5 h, read-out: cm.mii.90min): 101%
activity at 1 µM ([1]; 1.5 h, read-out: cm.mito.90min): 101%
viability at 1 µM ([1]; 1.5 h, read-out: cm.tc.90min): 101%
viability at 10 µM ([1]; 1.5 h, read-out: cm.cam.90min): 102%
activity at 10 µM ([1]; 1.5 h, read-out: cm.mii.90min): 92.5%
activity at 10 µM ([1]; 1.5 h, read-out: cm.mito.90min): 102%
viability at 10 µM ([1]; 1.5 h, read-out: cm.tc.90min): 102%
viability at 100 µM ([1]; 1.5 h, read-out: cm.cam.90min): 0%
activity at 100 µM ([1]; 1.5 h, read-out: cm.mii.90min): 32.7%
activity at 100 µM ([1]; 1.5 h, read-out: cm.mito.90min): 0.07%
viability at 100 µM ([1]; 1.5 h, read-out: cm.tc.90min): 0.07%
viability at 0.01 µM ([1]; 24 h, read-out: cm.cam.24hrs): 95.1%
activity at 0.01 µM ([1]; 24 h, read-out: cm.mii.24hrs): 98.5%
activity at 0.01 µM ([1]; 24 h, read-out: cm.mito.24hrs): 92.6%
viability at 0.01 µM ([1]; 24 h, read-out: cm.tc.24hrs): 94.5%
viability at 0.1 µM ([1]; 24 h, read-out: cm.cam.24hrs): 94.5%
activity at 0.1 µM ([1]; 24 h, read-out: cm.mii.24hrs): 96%
activity at 0.1 µM ([1]; 24 h, read-out: cm.mito.24hrs): 91.2%
viability at 0.1 µM ([1]; 24 h, read-out: cm.tc.24hrs): 94.3%
viability at 1 µM ([1]; 24 h, read-out: cm.cam.24hrs): 99.7%
activity at 1 µM ([1]; 24 h, read-out: cm.mii.24hrs): 98.3%
activity at 1 µM ([1]; 24 h, read-out: cm.mito.24hrs): 96.7%
viability at 1 µM ([1]; 24 h, read-out: cm.tc.24hrs): 99.8%
viability at 10 µM ([1]; 24 h, read-out: cm.cam.24hrs): 103%
activity at 10 µM ([1]; 24 h, read-out: cm.mii.24hrs): 74.7%
activity at 10 µM ([1]; 24 h, read-out: cm.mito.24hrs): 104%
viability at 10 µM ([1]; 24 h, read-out: cm.tc.24hrs): 103%
viability at 100 µM ([1]; 24 h, read-out: cm.cam.24hrs): 0%
activity at 100 µM ([1]; 24 h, read-out: cm.mii.24hrs): 0%
activity at 100 µM ([1]; 24 h, read-out: cm.mito.24hrs): 0%
viability at 100 µM ([1]; 24 h, read-out: cm.tc.24hrs): 0%
minimal effective concentration ([1]; 1.5 h, read-out: cm.cam.90min POD): 32.8 µM
minimal effective concentration ([1]; 1.5 h, read-out: cm.mii.90min POD): 9.15 µM
minimal effective concentration ([1]; 1.5 h, read-out: cm.mito.90min POD): 41.4 µM
minimal effective concentration ([1]; 1.5 h, read-out: cm.tc.90min POD): 34.5 µM
minimal effective concentration ([1]; 24 h, read-out: cm.cam.24hrs POD): 40.4 µM
minimal effective concentration ([1]; 24 h, read-out: cm.mii.24hrs POD): 6.56 µM
minimal effective concentration ([1]; 24 h, read-out: cm.mito.24hrs POD): 29.8 µM
minimal effective concentration ([1]; 24 h, read-out: cm.tc.24hrs POD): 35.9 µM
viability at 0.01 µM (HUVECs; [2]): 88.2%
activity at 0.01 µM (HUVECs; [3]): 87.7%
activity at 0.01 µM (HUVECs; [4]): 94.4%
activity at 0.01 µM (HUVECs; [5]): 93.4%
viability at 0.1 µM (HUVECs; [2]): 84.3%
activity at 0.1 µM (HUVECs; [3]): 84%
activity at 0.1 µM (HUVECs; [4]): 125%
activity at 0.1 µM (HUVECs; [5]): 97.1%
viability at 1 µM (HUVECs; [2]): 93%
activity at 1 µM (HUVECs; [3]): 92.5%
activity at 1 µM (HUVECs; [4]): 107%
activity at 1 µM (HUVECs; [5]): 95.6%
viability at 10 µM (HUVECs; [2]): 90.2%
activity at 10 µM (HUVECs; [3]): 88.2%
activity at 10 µM (HUVECs; [4]): 104%
activity at 10 µM (HUVECs; [5]): 92.6%
viability at 100 µM (HUVECs; [2]): 47.5%
activity at 100 µM (HUVECs; [3]): 38.4%
activity at 100 µM (HUVECs; [4]): 9.54%
activity at 100 µM (HUVECs; [5]): 65%
minimal effective concentration (HUVECs; 24 hr, read-out: huvec.cyto.24hr POD): 5.19 µM
minimal effective concentration (HUVECs; 24 hr, read-out: huvec.mito.24hr POD): 4.06 µM
minimal effective concentration (HUVECs; 24 hr, read-out: huvec.mitoint.24hr POD): 34.4 µM
minimal effective concentration (HUVECs; 24 hr, read-out: huvec.nma.24hr POD): 1.6 µM
viability at 0.01 µM (HUVECs; [6]): 88.2%
viability at 0.1 µM (HUVECs; [6]): 84.3%
viability at 1 µM (HUVECs; [6]): 93.2%
viability at 10 µM (HUVECs; [6]): 90.3%
viability at 100 µM (HUVECs; [6]): 84.1%
minimal effective concentration (HUVECs; 24 hrs, read-out: huvec.tc.24hrs POD): 5.19 µM
